According to patent publication US20040214803A1, “Use of vitamin d3 analogue for the treatment of autoimmune diabetes” (priority 2001, published 2004):

How the values were obtained:
Type in all cases: in vivo, mouse
CD4+ cells = experiment: Proliferation and IFN-γ secretion of CD4+ cells following TCR ligation
Description: Single cell suspensions from pancreatic lymph nodes or spleen were incubated with anti-CD4 mab-coated Microbeads (Miltenyi Biotec) and applied onto Mini-MACS columns (Miltenyi Biotec). Purified CD4^+ cells (6×10^5/well) were cultured for 48 h in round-bottom 96-well plates (Costar) pre-coated with 3 μg/ml purified anti-TCR mAb (ATCC HB 218; American Type Culture Collection, Manassas, Va.) with or without 100 U/ml IL-2 and/or 10 μg/ml anti-CD28 mAb. Cultures were performed in synthetic HL-1 medium (Ventrex Laboratories, Portland, Me.) supplemented with 2 mM L-glutamine and 50 μg/ml gentamicin (Sigma). To measure cell proliferation, cultures were pulsed 8 h before harvesting with 1 μCi [^3H]TdR ([…]; Radiochemical Center, Amersham, U.K.). Incorporation of [^3H]TdR was measured by liquid scintillation spectrometry. Alternatively, splenic or pancreatic lymph node CD4^+CD25^+ and CD4^+CD25^− cells were sorted with MultiSort Kit (Miltenyi Biotec, Auburn, Calif.).
Cytokines were quantified by two-sites ELISA. IFN-γ was determined using paired mAb from PharMingen (San Diego, Calif.). For capture, the mAb was AN-18.17.24. Samples were titrated and incubated overnight at 4° C. To detect bound IFN-γ plates were then incubated with biotinylated XMG1.2 mAb. […] The plates were washed again and incubated with the developing substrate p-nitrophenylphosphate disodium (Sigma) in diethanolamine buffer (pH 9.6; 100 μl/well). The reaction was stopped by adding 50 μl/well NaOH 3N, and absorbance was read at 405 nm. ELISA for IL-12p75 was performed as described (Gately, M. K., et al., Current Protocols Immunol. 1995, 3, 15:6.16.11-16.16.15). Cytokines were quantified from two to three titration points using standard curves generated by purified recombinant mouse cytokines and results expressed as cytokine concentration in ng or pg/ml. Detection limits were 15 pg/ml for both cytokines.
FIG. 5. (page 5/9) Proliferation and IFN-γ secretion following TCR ligation. Splenic and pancreatic lymph node CD4^+ cells from untreated 8 week-old (□) or 20 week-old NOD mice treated 5×/week from 8 to 16 weeks of age with vehicle (□) or with 0.03 μg/KgCompound A (▪) were positively selected and stimulated (6×10^5 cells/well) with plate-bound anti-TCR mAb (10 μg/ml) in the presence of 100 U/ml IL-2 and/or 5 μg/ml anti-CD28 mAb. A. Cells were pulsed with [^3H]-thymidine during the last 8 hrs of a 48 h culture. Data are presented as mean ±SE of thymidine incorporation (Δ cpm) from triplicate cultures, background values were 790±100 cpm. B. After 48 h of culture, IFN-γ secretion was quantified by ELISA. Results, presented as mean ±SE of triplicate cultures, are from one representative experiment out of four performed.

aortic allografts = experiment: Aortic allograft histology: inflammatory cell infiltrate; conditions: 0.03 μg/kg p.o., 60 days after transplantation
Description: Histology: Segments of aorta grafts were snap-frozen in Tissue Tek (Miles Laboratories, Elkhart, Ind.), and stored at −80° C. Frozen sections, 5 μm thick, were stained with hematoxylin and eosin, or with biotinylated mAbs against CD4, CD8, B220, CD11b or CD11c (all purchased from PharMingen, San Diego, Calif.), followed by streptavidin-peroxidase conjugate. 3-amino-9-ethylcarbazole (DAKO, Carpenteria, Calif.) was used as chromogen, and hematoxylin as a counterstain. The effect of Compound A in preventing chronic rejection was evaluated using the aortic graft model in the mouse. Graft combinations were syngeneic or allogeneic. In allogeneic combinations, recipient mice were treated orally with vehicle alone or containing Compound A (0.03 μg/kg) fives times per week, from day 0 to day 30 relative to the time of grafting. Aortic grafts were analyzed 60 days after transplantation.

[1] = test system: pancreatic islets of NOD mice; experiment: Insulitis scoring and immunohistology of pancreas sections
Description: Pancreata were snap-frozen in Tissue Tek (Miles Laboratories, Elkhart, Ind.), and 5-μm-thick sections stained with hematoxilin and eosin. Insulitis score was quantified as follows: 0, no insulitis; 1, peri-insulitis; 2, insulitis in <50% of the islet; 3, insulitis in >50% of the islet. A mean score was calculated from 40-50 islets per individual pancreas. In addition, pancreas cryostat sections were stained with biotinylated mAb directed against CD4, CD8, B220, CD11b (all purchased from PharMingen), or CD11c (N418; American Type Culture Collection, Manassas, Va.), followed by streptavidin-peroxidase conjugate. […]
NOD female mice were treated daily with Compound A (0.03 μg/Kg body weight per os) or vehicle from 8 to 12 or 16 weeks of age and glycemia levels were monitored until 38 weeks of age. […]
FIG. 2. […] The results refer to the mean values ±SE of 8 mice/group, except for 1,25-dihydroxy-16,23Z-diene-26,27-hexafluoro-19-nor vitamin D3-treated mice where three mice were scored. The P values were calculated by Mann-Whitney U test. The severity of the infiltrate is shown in the right panel Islets from the same mice were scored for absence of insulitis (□, peri-insulitis (□), moderate insulitis with <50% infiltration of the islets ( ? ) , and severe insulitis, with >50% of infiltration of the islets (▪). […]

[2] = pancreatic lymph node CD4+ cells
[3] = pancreatic lymph node CD4+ cells from 20 week-old mice

C[C@H](C/C=C\C(O)(C(F)(F)F)C(F)(F)F)C1=CC[C@H]2/C(=C/C=C3C[C@@H](O)C[C@H](O)C3)CCC[C@]12C [Compound A, 1,25-dihydroxy-16,23Z-diene-26,27-hexafluoro-19-nor vitamin D3]
IFN-γ secretion after addition of IL-2 and/or anti-CD28 mAb (CD4+ cells; [2]): restored
proliferation after addition of IL-2, alone or together with anti-CD28 mAb (CD4+ cells; [2]): not restored
proliferation to insolubilized anti-TCR mAb vs age-matched controls (CD4+ cells; [3]): four times less
proliferation to insolubilized anti-TCR mAb vs cells from 8 week-old mice (CD4+ cells; [3]): 10 times less
CD4, CD8 and B cells in the grafts (aortic allografts): complete absence
number of macrophages and dendritic cells in the grafts (aortic allografts; vs vehicle): profoundly reduced number
functional islet β cells (positive staining for insulin) ([1]; at 30 weeks of age, compared to vehicle-treated NOD mice at 30 weeks): more frequent
score and severity of insulitis ([1]; treated 8 to 16 weeks, analysed at 30 weeks of age, compared to 8 weeks old NOD mice): similar
